Where two headings read alike, the source gives them in different places.
Columns and labels:
[1] = molecular target: sigma-2 receptor (Homo sapiens, UniProt Q5BJF2); experiment: sigma-2 receptor binding affinity (Ki)
[2] = molecular target: sigma-1 receptor (Homo sapiens, UniProt Q99720); experiment: sigma-1 receptor binding affinity (Ki)
Sequence of sigma-1 receptor (Q99720 whole entry, species assumed): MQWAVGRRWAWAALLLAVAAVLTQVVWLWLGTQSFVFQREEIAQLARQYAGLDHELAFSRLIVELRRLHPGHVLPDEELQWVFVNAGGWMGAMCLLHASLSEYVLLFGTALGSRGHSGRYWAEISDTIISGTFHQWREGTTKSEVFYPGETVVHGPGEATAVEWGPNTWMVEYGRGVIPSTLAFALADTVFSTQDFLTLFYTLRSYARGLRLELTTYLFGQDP

Sequence of sigma-2 receptor (Q5BJF2 whole entry, species assumed): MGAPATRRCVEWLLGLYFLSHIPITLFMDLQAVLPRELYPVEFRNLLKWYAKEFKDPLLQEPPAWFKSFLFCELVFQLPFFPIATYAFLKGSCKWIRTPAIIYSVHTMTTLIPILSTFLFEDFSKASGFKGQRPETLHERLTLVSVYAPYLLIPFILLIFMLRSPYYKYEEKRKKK

Ki ([1]; read-out: Ki (nM) Sigma-2) [nM]	Ki ([2]; read-out: Ki (nM) Sigma-1) [nM]	Compound	other results
517	1030	O=C(c1nn(-c2ccccc2)c2c1CC(NCCc1ccncc1)CC2)N1CCCCC1 (stereo not drawn) [compound 201666, (1-Phenyl-5-((2-(pyridin-4-yl)ethyl)amino)-4,5,6,7-tetrahydro-1H-indazol-3-yl)(piperidin-1-yl)methanone]	–
1990	–	CCCn1nc(C(=O)N2CCCCC2)c2c1CCC(NCCCNC)C2 (stereo not drawn) [compound 200820, (5-((3-(Methylamino)propyl)amino)-1-propyl-4,5,6,7-tetrahydro-1H-indazol-3-yl)(piperidin-1-yl)methanone]	–
2190	1580	CCCn1nc(C(=O)N(C)C)c2c1CCC(NCc1ccc(F)cc1)C2 (stereo not drawn) [compound 54121, 5-((4-Fluorobenzyl)amino)-N,N-dimethyl-1-propyl-4,5,6,7-tetrahydro-1H-indazole-3-carboxamide]	activity against sigma-2 (in words) [1]: moderate activity; Ki ([1]; read-out: Ki sigma-2): 2100 nM; activity against sigma-1 (in words) [2]: moderate activity; selectivity sigma-1 versus sigma-2 (in words) [2]: slightly more selectivity for the sigma-1 receptor; Ki ([2]; read-out: Ki sigma-1): 1500 nM
19	–	CCCn1nc(C(=O)N2CCCCC2)c2c1CCC(N(C)Cc1ccc(F)cc1)C2 (stereo not drawn) [compound 196339, (5-((4-fluorobenzyl)(methyl)amino)-1-propyl-4,5,6,7-tetrahydro-1H-indazol-3-yl)(piperidin-1-yl)methanone]	selectivity of sigma-2 ligands against sigma-1 (in words) [1]: excellent selectivity
> 10000	> 10000	CCCn1nc(C(=O)N(C)C)c2c1CCC(NC(=O)c1ccc(F)cc1)C2 (stereo not drawn) [compound 2000623, 5-(4-fluorobenzamido)-N,N-dimethyl-1-propyl-4,5,6,7-tetrahydro-1H-indazole-3-carboxamide]	activity against sigma-2 (in words) [1]: did not restore the activity; activity against sigma-1 (in words) [2]: did not restore the activity
16	–	CCCn1nc(C(=O)N2CCCCC2)c2c1CCC(N1CCC(c3ccncc3)CC1)C2 (stereo not drawn) [compound 200639, Piperidin-1-yl(1-propyl-5-(4-(pyridin-4-yl)piperidin-1-yl)-4,5,6,7-tetrahydro-1H-indazol-3-yl)methanone]	selectivity of sigma-2 ligands against sigma-1 (in words) [1]: excellent selectivity
32	96	C=Cc1ccc(-n2nc3c(c2C(=O)N2CCCCC2)CC(NCCc2ccccc2)CC3)cc1 (stereo not drawn) [compound 201591, (5-(phenethylamino)-2-(4-vinylphenyl)-4,5,6,7-tetrahydro-2H-indazol-3-yl)(piperidin-1-yl)methanone]	–
31	–	CCCn1nc(C(=O)N2CCCCC2)c2c1CCC(N1CCc3ccccc3C1)C2 (stereo not drawn) [compound 196338, (5-(3,4-dihydroisoquinolin-2(1H)-yl)-1-propyl-4,5,6,7-tetrahydro-1H-indazol-3-yl)(piperidin-1-yl)methanone]	activity against sigma-2 (in words) [1]: retained sigma-2 activity; selectivity of sigma-2 ligands against sigma-1 (in words) [1]: excellent selectivity
787	–	CCCn1nc(C(=O)N2CCCCC2)c2c1CCC(Nc1ccc(N3CCCCC3)cc1)C2 (stereo not drawn) [compound 200637, Piperidin-1-yl(5-((4-(piperidin-1-yl)phenyl)amino)-1-propyl-4,5,6,7-tetrahydro-1H-indazol-3-yl)methanone]	–
673	–	CCCn1nc(C(=O)N2CCCCC2)c2c1CCC(NCCCN1CCCC1=O)C2 (stereo not drawn) [compound 54120]	–
1100	–	CCCn1nc(C(=O)N2CCCCC2)c2c1CCC(N1CCN(Cc3ccc(C#N)cc3)CC1)C2 (stereo not drawn) [compound 200641, 4-((4-(3-(Piperidine-1-carbonyl)-1-propyl-4,5,6,7-tetrahydro-1H-indazol-5-yl)piperazin-1-yl)methyl)benzonitrile]	–
434	–	CCCn1nc(C(=O)N2CCCCC2)c2c1CCC(NCCN1CCCCC1)C2 (stereo not drawn) [compound 200640, Piperidin-1-yl(5-((2-(piperidin-1-yl)ethyl)amino)-1-propyl-4,5,6,7-tetrahydro-1H-indazol-3-yl)methanone]	–

Continued, molecule first:

Compound	Ki ([1]; read-out: Ki (nM) Sigma-2) [nM]	Ki ([2]; read-out: Ki (nM) Sigma-1) [nM]	other results
CCCn1nc(C(=O)N2CCCCC2)c2c1CCC(N1CCC(N(C)C)CC1)C2 (stereo not drawn) [compound 196331, (5-(4-(dimethylamino)piperidin-1-yl)-1-propyl-4,5,6,7-tetrahydro-1H-indazol-3-yl)(piperidin-1-yl)methanone]	> 10000	> 10000	–
O=C(c1nn(Cc2ccccc2)c2c1CC(NCCc1ccncc1)CC2)N1CCCCC1 (stereo not drawn) [compound 201114, (1-benzyl-5-((2-(pyridin-4-yl)ethyl)amino)-4,5,6,7-tetrahydro-1H-indazol-3-yl)(piperidin-1-yl)methanone]	> 10000	249	–
O=C(c1nn(-c2ccccc2)c2c1CC(NCCc1cccc(O)c1)CC2)N1CCCCC1 (stereo not drawn) [compound 201681, (5-((3-Hydroxyphenethyl)amino)-1-phenyl-4,5,6,7-tetrahydro-1H-indazol-3-yl)(piperidin-1-yl)methanone]	> 10000	204	–
O=C(c1c2c(nn1-c1ccc(F)cc1)CCC(NCCc1ccncc1)C2)N1CCCCC1 (stereo not drawn) [compound 201116, (2-(4-fluorophenyl)-5-((2-(pyridin-4-yl)ethyl)amino)-4,5,6,7-tetrahydro-2H-indazol-3-yl)(piperidin-1-yl)methanone]	251	103	–
NC(=O)c1ccc(-n2nc3c(c2C(=O)N2CCCCC2)CC(NCCc2ccccc2)CC3)cc1 (stereo not drawn) [compound 201242, 4-(5-(Phenethylamino)-3-(piperidine-1-carbonyl)-4,5,6,7-tetrahydro-2H-indazol-2-yl)benzamide]	> 10000	588	–
CCCn1nc(C(=O)N2CCCCC2)c2c1CCC(N1CCN(c3ccc([N+](=O)[O-])cc3)CC1)C2 (stereo not drawn) [compound 200709, (5-(4-(4-Nitrophenyl)piperazin-1-yl)-1-propyl-4,5,6,7-tetrahydro-1H-indazol-3-yl)(piperidin-1-yl)methanone]	526	1590	–
CCCn1nc(C(=O)N2CCCCC2)c2c1CCC(NCc1ccc(S(N)(=O)=O)cc1)C2 (stereo not drawn) [compound 200652, 4-(((3-(Piperidine-1-carbonyl)-1-propyl-4,5,6,7-tetrahydro-1H-indazol-5-yl)amino)methyl)benzenesulfonamide]	439	–	–
NC(=O)c1ccc(-n2nc(C(=O)N3CCCCC3)c3c2CCC(NCCc2ccccc2)C3)cc1 (stereo not drawn) [compound 201243, 4-(5-(Phenethylamino)-3-(piperidine-1-carbonyl)-4,5,6,7-tetrahydro-1H-indazol-1-yl)benzamide]	561	465	–
CCCn1nc(C(=O)N(C)C)c2c1CCC(NCc1ccc(Cl)cc1)C2 (stereo not drawn) [compound 200875, 5-((4-chlorobenzyl)amino)-N,N-dimethyl-1-propyl-4,5,6,7-tetrahydro-1H-indazole-3-carboxamide]	1020	–	activity against sigma-2 (in words) [1]: moderate inhibition; activity against sigma-1 (in words) [2]: complete loss of activity
CCCn1nc(C(=O)N2CCCCC2)c2c1CCC(NCCc1cccc(O)c1)C2 (stereo not drawn) [compound 200646, (5-((3-Hydroxyphenethyl)amino)-1-propyl-4,5,6,7-tetrahydro-1H-indazol-3-yl)(piperidin-1-yl)methanone]	612	872	–
O=C(c1nn(-c2ccccc2)c2c1CC(NCCc1ccc(C(F)(F)F)cc1)CC2)N1CCCCC1 (stereo not drawn) [compound 201684, (1-Phenyl-5-((4-(trifluoromethyl)phenethyl)amino)-4,5,6,7-tetrahydro-1H-indazol-3-yl)(piperidin-1-yl)methanone]	> 10000	337	–
O=C(c1nn(-c2ccccc2)c2c1CC(NCc1ccccc1)CC2)N1CCCCC1 (stereo not drawn) [compound 201665, (5-(Benzylamino)-1-phenyl-4,5,6,7-tetrahydro-1H-indazol-3-yl)(piperidin-1-yl)methanone]	492	710	–
CCCn1nc(C(=O)N2CCCCC2)c2c1CCC(NCc1ccc(N3CCCCC3)cc1)C2 (stereo not drawn) [compound 200647, Piperidin-1-yl(5-((4-(piperidin-1-yl)benzyl)amino)-1-propyl-4,5,6,7-tetrahydro-1H-indazol-3-yl)methanone]	169	–	–
CCCn1nc(C(=O)N(C)C)c2c1CCC(OCc1ccc(F)cc1)C2 (stereo not drawn) [compound 200622, 5-((4-fluorobenzyl)oxy)-N,N-dimethyl-1-propyl-4,5,6,7-tetrahydro-1H-indazole-3-carboxamide]	> 10000	> 10000	activity against sigma-2 (in words) [1]: completely lost; activity against sigma-1 (in words) [2]: completely lost
CCCn1nc(C(=O)N(C)C)c2c1CCC(SCc1ccc(F)cc1)C2 (stereo not drawn) [compound 200624, 5-((4-fluorobenzyl)thio)-N,N-dimethyl-1-propyl-4,5,6,7-tetrahydro-1H-indazole-3-carboxamide]	> 10000	> 10000	activity against sigma-2 (in words) [1]: completely lost; activity against sigma-1 (in words) [2]: completely lost
CCCn1nc(C(=O)N2CCCCC2)c2c1CCC(NCCNC(=N)N)C2 (stereo not drawn) [compound 200829, 2-(2-((3-(Piperidine-1-carbonyl)-1-propyl-4,5,6,7-tetrahydro-1H-indazol-5-yl)amino)ethyl)guanidine]	2160	–	activity against sigma-2 (in words) [1]: decreased activity
CCCn1nc(C(=O)N(C)C)c2c1CCC(NCc1ccc(OC)cc1OC)C2 (stereo not drawn) [compound 200874, 5-((2,4-dimethoxybenzyl)amino)-N,N-dimethyl-1-propyl-4,5,6,7-tetrahydro-1H-indazole-3-carboxamide]	839	–	–
CCCn1nc(C(=O)N2CCCCC2)c2c1CCC(NCC1CCOCC1)C2 (stereo not drawn) [compound 200642, Piperidin-1-yl(1-propyl-5-(((tetrahydro-2H-pyran-4-yl)methyl)amino)-4,5,6,7-tetrahydro-1H-indazol-3-yl)methanone]	710	–	–
O=C(c1c2c(nn1-c1ccc(F)cc1)CCC(NCc1ccc(F)cc1)C2)N1CCCCC1 (stereo not drawn) [compound 201117, (5-((4-fluorobenzyl)amino)-2-(4-fluorophenyl)-4,5,6,7-tetrahydro-2H-indazol-3-yl)(piperidin-1-yl)methanone]	–	17	selectivity of sigma-1 ligand against sigma-2 [2]: over 500 ×
